According to patent US20230293447A1, “CLEAVABLE LIPIDIC COMPOUNDS, COMPOSITIONS CONTAINING THEREOF, AND USES THEREOF” (priority 2020, published 2023):

Tests used:
hEPO = hEPO expression in mouse serum after intramuscular injection of LNPs containing hEPO mRNA (ELISA); type: in vivo, Balb/c ByJ mice; conditions: 1 μg-dose of hEPO mRNA IM in quadriceps, serum 6 hours post-injection; LNPs lipid/DSPC/Chol/DMG-PEG2000 50:10:3.5:1.5, N/P 12
Protocol: LNPs comprising lipidic compound of formula (III) (or DOG-Cleave) or one of the compounds (VI), (XVII), (XIX), (XXI), (XXII), (XXIV), (XXVII) and (XXVIII), DSPC, Chol and DMG-PEG2000 at a molar ratio of 50:10:3.5:1.5, and hEPO mRNA at a N/P charge ratio=12 (unless otherwise specified in the table), were prepared as described in Example 30 by using the NanoassemblR. An Aqueous/Ethanolic phase volume ratio of 3/1 and at total flow rate of 4 mL/min was used. LNPs were prepared at a concentration of 60 μg of hEPO mRNA/mL in PBS 1×.
Four 8-week-old mice per group were injected on DO via intramuscular route in the quadriceps with 1 μg-dose of hEPO mRNA formulated in LNPs Lip. (IV)/DSPC under a final volume of 50 μL. As negative control, 4 mice received the same volume of PBS (for accelerated stability study and lipid screening) or Citrate Buffer (lipid screening)
Blood samples were collected 6 hours post-injection to measure the expression of hEPO in serum using a specific ELISA assay.
Blood samples were collected 6 hours post-injection by carotid section under deep anesthesia with Imalgene/Rompun (1.6 mg of Ketamine/0.32 mg of Xylazine) in serum-separation tubes (BD Vacutainer #BD367957). Sera were aliquoted and stored at −20° C. until hEPO determination.
hEPO expression in mouse sera was assessed using human Erythropoietin Quantikine IVD ELISA kit (R&D Systems #DEP00). The ELISA was performed following supplier's instructions. Briefly, sera were added in pre-coated plates and incubated for one hour at room temperature under orbital shaking. After sera removal, Erythropoietin conjugate was added for one hour at room temperature under orbital shaking. Plates were washed and Substrate solution was added for 20-25 minutes at room temperature before stopping the reaction with Stop solution. Absorbance at 450 nm with 650 nm signal subtraction was determined in a microplate reader. Data were analyzed using SoftmaxPro software and expressed in log 10 of the concentration of hEPO measured in mouse sera in pg/mL.

[1] = UHPLC-CAD-MS analysis of cleavage of DOG-Cleave during LNP formulation process; type: physicochemical; conditions: from extracted ion chromatograms, same response factor assumed

Row | Molecule | EPO secretion IM (hEPO) [Log10 pg/ml] | further results
1 | CCCCCCCC/C=C\CCCCCCCCOCC(COCCOCCOCCOCCOC(=O)CNCCOC(=O)CNCCOC)OCCCCCCCC/C=C\CCCCCCCC.O=C(O)C(F)(F)F.O=C(O)C(F)(F)F (centres unmarked) [Compound (III), 2-[[2-[2-[2-[2-[2-[2,3-bis[(Z)-octadec-9-enoxy]propoxy]ethoxy]ethoxy]ethoxy]ethoxy]-2-oxo-ethyl]amino]ethyl 2-(2-methoxyethylamino)acetate;2,2,2-trifluoroacetic Acid] | 1.5 | Relative amount in DOG-Cleave EtOH solution [1]: 75%; Relative amount in Final LNP [1]: 25%; Relative amount in LNP after 1st dialysis [1]: 59%
2 | CCCCCCCC/C=C\CCCCCCCCOCC(COCCOCCOCCOCCOC(=O)CNCCOC(=O)[C@@H](N)COC)OCCCCCCCC/C=C\CCCCCCCC.Cl (stereo partly drawn) [Compound (VI), 2-[[2-[2-[2-[2-[2-[2,3-bis[(Z)-octadec-9-enoxy]propoxy]ethoxy]ethoxy]ethoxy]ethoxy]-2-oxoethyl]amino]ethyl (2S)-2-amino-3-methoxy-propanoate; Hydrochloride] | 2.1 | 
3 | CCCCCCCCC=CCCCCCCCCOCC(OCCCCCCCCC=CCCCCCCCC)C(=O)N(CCCCCCCC)CCOCCOCCOCCOCCOC(=O)CNCCOC(=O)CNCCOC.O=C(O)C(F)(F)F (centres unmarked) [Compound (XIX), 2-[[2-[2-[2-[2-[2-[2-[2,3-bis[(Z)-octadec-9-enoxy]propanoyl-octylamino]ethoxy]ethoxy]ethoxy]ethoxy]ethoxy]-2-oxo-ethyl]amino]ethyl 2-(2-methoxyethylamino)acetate;2,2,2-trifluoroacetic Acid] | 2.4 | 
4 | CCCCCCC(CCCC)C(=O)OCCCCCCOCC(COCCOCCOCCOCCOC(=O)CNCCOC(=O)CNCCOC)OCCCCCCOC(=O)C(CCCC)CCCCCC (centres unmarked) [Compound (XXII), 6-[2-[6-(2-butyloctanoyloxy)hexoxy]-3-[2-[2-[2-[2-[2-[2-[2-(2-methoxyethylamino)acetyl]oxyethylamino]acetyl]oxyethoxy]ethoxy]ethoxy]ethoxy]propoxy]hexyl 2-butyloctanoate;2,2,2-trifluoroacetic Acid] | 2.5 | 
5 | CCCCCCCCC=CCCCCCCCCOCC(OCCCCCCCCC=CCCCCCCCC)C(CCCCCCCCCCCC)OC(=O)NCCOCCOCCOCCOC(=O)CNCCOC(=O)CNCCOC.O=C(O)C(F)(F)F (centres unmarked) [Compound (XXIV), 2-[[2-[2-[2-[2-[2-[1-[1,2-bis[(Z)-octadec-9-enoxy]ethyl]tridecoxycarbonylamino]ethoxy]ethoxy]ethoxy]ethoxy]-2-oxo-ethyl]amino]ethyl 2-(2-methoxyethylamino)acetate;2,2,2-trifluoroacetic Acid] | 1.9 | 
6 | CCCCCCCCCOC(=O)CCCCCCCN(CCCCCCCC(=O)OC(CCCCCCCC)CCCCCCCC)C(=O)CCOCCOCCOCCOC(=O)CNCCOC(=O)CNCCOC [Compound (XXVII), nonyl 8-[3-[2-[2-[2-[2-[2-[2-(2-methoxyethylamino)acetyl]oxyethylamino]acetyl]oxyethoxy]ethoxy]ethoxy]propanoyl-[8-(1-octylnonoxy)-8-oxo-octyl]amino]octanoate;2,2,2-trifluoroacetic Acid] | 1.9 | 
7 | CCCCCCCCC(CCCCCC)C(=O)OCCCCCCOCC(OCCCCCCOC(=O)C(CCCCCC)CCCCCCCC)C(=O)N(CCCCCCCC)CCOCCOCCOCCOCCOC(=O)CNCCOC(=O)CNCCOC (centres unmarked) [Compound (XXVIII), 6-[2-[6-(2-hexyldecanoyloxy)hexoxy]-3-[2-[2-[2-[2-[2-[2-[2-[2-(2-methoxyethylamino)acetyl]oxyethylamino]acetyl]oxyethoxy]ethoxy]ethoxy]ethoxy]ethyl-octyl-amino]-3-oxopropoxy]hexyl 2-hexyldecanoate;2,2,2-trifluoroacetic acid] | 2.3 | 
8 | [(Z)-non-2-enyl] 8-[3-[2-[2-[2-[2-[2-[2-[2-(2-methoxyethylamino)acetyl]oxyethylamino]acetyl]oxyethoxy]ethoxy]ethoxy]ethoxy]-2-[8-[(Z)-non-2-enoxy]-8-oxo-octoxy]propoxy]octanoate;2,2,2-trifluoroacetic Acid [Compound (XVII)] | 2.4 | 
